These results are taken from article PMC8607231, “Generation of KS-133 as a Novel Bicyclic Peptide with a Potent and Selective VIPR2 Antagonist Activity that Counteracts Cognitive Decline in a Mouse Model of Psychiatric Disorders” (Frontiers in Pharmacology, 2021).

For the assay, the target named is T1, human VIPR1 (Homo sapiens, UniProt P32241).
T1 construct: host or cells: CHO-K1
T1 sequence (P32241 31-457): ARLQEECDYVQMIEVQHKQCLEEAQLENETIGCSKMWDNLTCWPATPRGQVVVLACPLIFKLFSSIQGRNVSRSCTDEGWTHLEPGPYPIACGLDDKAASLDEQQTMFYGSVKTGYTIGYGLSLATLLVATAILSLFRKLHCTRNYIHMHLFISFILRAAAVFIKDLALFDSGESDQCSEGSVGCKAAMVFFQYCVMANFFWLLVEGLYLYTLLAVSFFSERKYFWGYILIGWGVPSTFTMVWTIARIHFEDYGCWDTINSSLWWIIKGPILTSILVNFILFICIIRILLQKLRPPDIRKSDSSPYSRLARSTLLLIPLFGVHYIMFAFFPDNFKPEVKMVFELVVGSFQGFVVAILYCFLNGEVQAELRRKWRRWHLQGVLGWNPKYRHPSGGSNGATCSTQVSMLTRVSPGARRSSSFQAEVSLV
Nature of the assay: Calcium influx assay, antagonist activity against VIP-VIPR1 signaling. Format: cell-based. As to conditions: ligand VIP (25 nM) at EC80; CHO-K1 cells; n = 4 wells, ± S.E.M; read-out: Ca influx assay [IC50 (nM)] VIPR1. As for the experimental part:
Evaluation of antagonist activities of peptides against VIP-VIPR1, VIP-VIPR2, and PACAP-PAC1 signaling pathways and agonistic activity of KS-133 at VIPR2 was carried out by Eurofins DiscoverX (Fremont, CA, United States). Intracellular calcium mobilization was monitored using a calcium-sensitive dye loaded in CHO-K1 cells expressing human VIPR1 (ITEM 86-0030P-2243AN), VIPR2 (ITEM 86-0030P-2244AN), and PAC1 (ITEM 86-0030P-2066AN). The cells were preincubated with antagonistic peptides for 30 min at room temperature in the dark. After addition of the ligand at EC80, calcium mobilization was immediately monitored by FLIPR Tetra for 2 min. Cyclic AMP production in CHO-K1 cells expressing human VIPR2 was evaluated using HitHunter® cAMP assays (antagonist mode: ITEM 86-0007P-2362AN; agonist mode: ITEM 86-0007P-2362AG). The cells were preincubated with antagonistic peptides for 30 min at room temperature. After addition of the ligand at EC80, cells were further incubated for 30 min at room temperature. Cells were lysed and the cAMP content of the cell lysate was determined by the β-galactosidase-based enzyme fragment complementation assay ([Eglen, 2002]). IC50 values were estimated by the following equation: IC50 = 10^[Log(A/B) × (50–D)/(C–D) + Log(B)], where A is the concentration at >50% inhibition, B is the concentration at <50% inhibition, C is the inhibition rate at concertation A, and D is the inhibition rate at concertation B.
First, the antagonistic activities of parental VIpep-3, KS-132, KS-133 (monocyclic) (no bridging between Lys^7 and Asp^11), and KS-133 against human VIPR1, VIPR2, and PAC1 were evaluated by a calcium influx assay. After antagonistic peptide treatment for 30 min, ligand at a concentration of EC80 was added to the cells and then calcium signaling was measured.
FIGURE 3 Antagonistic/agonistic activities of peptides in the calcium influx and cAMP assays. For evaluation of the antagonistic activity, the cells were preincubated with antagonistic peptides for 30 min. In the calcium influx assay, after addition of ligand at EC80, calcium mobilization was monitored immediately (see details in the Methods section) (n = 4 wells for each treatment). In the cAMP assay, after a 30 min incubation with the ligand at EC80, cAMP production in cells was measured (see details in the Methods section) (n = 4 wells for each treatment).

Structures are written as SMILES. Where a SMILES comes first, the peptide text is derived from it. Bridges are numbered along the chain shown (N, C = ends).

As for `CC[C@H](C)[C@H](NC(=O)[C@H](CC(C)C)NC(=O)[C@@H]1CC(=O)NCCCC[C@@H]2NC(=O)[C@@H]3CCCN3C(=O)[C@H](CC(C)C)NC(=O)[C@H](Cc3ccc(O)cc3)NC(=O)[C@@H]3CCCN3C(=O)[C@@H]3CCCN3C(=O)[C@@H](NC(C)=O)CSSC[C@H](NC(=O)[C@H](CC(C)C)NC(=O)[C@H](Cc3ccc(O)cc3)NC2=O)C(=O)N1)C(N)=O` [KS-133, Ac-c[Cys-Pro-Pro-Tyr-Leu-Pro-c(Lys-Tyr-Leu-Cys]-Asp)-Leu-Ile-NH2] (Ac-CPPYLPKYLCDLI-NH2; disulfide 1-10; lactam 7-11), the IC50 is more than 5000 nM.

The term IC50 denotes the concentration that gives 50% inhibition.
